# Measured values as given in patent US20170238571A1, “A SYNERGISTIC COMPOSITION COMPRISING A MIXTURE OF BACTERIA OF THE GENERA LACTOBACILLUS AND PROPIONOBACTERIUM PARTICULARLY USEFUL TO REDUCE OR ELIMINATE PATHOGEN CONTAMINATION IN SOYBEN MEAL AND ITS DERIVATIVES; METHODS AND USES THEREOF” (Molinos Río de la Plata S.A., priority 2014, published 2017).
# Columns and labels:
# Format in all cases: cell-based
# [1] = test system: Salmonella (S. typhimurium, S. enteritidis, S. heidelberg); assay: Effectiveness of mixes against Salmonella in soybean meal with 8% DBM; details: 25° C. - 8% DBM; for Average (n = 3): Salmonella count; for LOG10 (CFU/g): Salmonella
# Protocol: (§1) In order to assess the effectiveness of the mix of the invention in the matrix of interest, an appropriate working protocol was prepared. Initially, 500 g of soybean meal were infected with 50 mL of Salmonella solution whose composition was: 10^6 CFUS. typhimurium/mL, 10^6 CFUS. enteritidis /mLand 10^6 CFUS. heidelberg /mL in equal amounts. […] 50 g of the wet meal obtained (≈25% moisture content on dry basis) were mixed within the dry meal (≈10% moisture content dry basis) and were stirred for 10 minutes. […] Daily determinations of Salmonella colony forming units were performed on this contaminated meal. To this end, 40.5 g of BPW to 4.5 g of the resulting meal were added and vigorously stirred, and then 100μL of this solution, were plated onto Salmonella-Shigella agar (SS Agar). When microorganisms were used in the protecting mixes, concentrations were carefully balanced, and the amount of bacteria added was always the same.
# (§2) In the cases in which solutions with ferments were used for protection purposes, cell concentration was of about 10^8 CFU/mL.
# After oil is stripped from the soybean flakes during the extraction process, the latter goes through a desolventizer to evaporate the residual hexane remaining after extraction. This process adds moisture to the flakes, since desolventizing is a process that uses steam. Once the soybean flake is desolventized, it is dried to obtain the desired moisture level. The moisture content assessed on a dry basis of a typical meal product is around 11-12% DBM; however, at present we can find meals on the market with a moisture content ranging from 8-13% DBM. The effectiveness of the mix of the invention was tested in meals with different moisture contents.
# [2] = test system: Salmonella (S. typhimurium, S. enteritidis, S. heidelberg); assay: Salmonella elimination in contaminated soybean meal: independent ferments vs. mixes (synergistic effect); details: 25° C. - 12% DBM; for Average (n = 3): Salmonella count; for LOG10 (CFU/g) / Reduction %: Salmonella
# Protocol: as §1, §2
# Using the protocol described above, the effects caused by the individual strains were assessed and then compared with the effect obtained after mixing them together. […] In order to come closer to the actual values, whenever a ND value was obtained using the methodology described above, a new dilution factor was applied; each time by adding only 18 g of buffer (stirring thoroughly and then spinning), and 200 μL of this solution were plated for recounting. […] This new protocol was only used to determine the effect of the different mixes. In turn, the results obtained herein are shown using the following formula: […]
# Thus, the percentage of Salmonella elimination in meal was calculated for different mixes, as well as for each ferment individually.
# [3] = test system: Salmonella (S. typhimurium, S. enteritidis, S. heidelberg); assay: Effectiveness of mixes against Salmonella in soybean meal at different temperatures; details: for Average (n = 3): Salmonella count; for LOG10 (CFU/g): Salmonella
# Protocol: as §1, §2
# The following tests were carried out to assess the effectiveness of different mixes under different conditions. To assess extreme temperatures, meal products were stored at 5, 25, and 32° C., after contamination and protection, respectively. Samples were taken every 24 hours and triplicate determinations of Salmonella, lactic and propionic bacteria were made.
# [4] = 0 days, first series (0-6 days)
# [5] = 0 days, second series (0-3 days)
# [6] = 1 day, second series (0-3 days)
# [7] = 2 days, first series (0-6 days)
# [8] = 2 days, second series (0-3 days)
# [9] = 3 days, first series (0-6 days)
# [10] = 3 days, second series (0-3 days)
# [11] = 4 days, first series (0-6 days)
# [12] = 5 days, first series (0-6 days)
# [13] = 6 days, first series (0-6 days)
compound,measurement,setting,value
CCC(=O)O [Propionic Acid],Average (n = 3),[1]; 0 hours,199.67
same,Average (n = 3),[1]; 12 hours,175
same,Average (n = 3),[1]; 24 hours,130
same,Average (n = 3),[1]; 36 hours,100.33
same,Average (n = 3),[1]; 48 hours,90.67
same,Average (n = 3),[1]; 60 hours,77
same,Average (n = 3),[1]; 72 hours,58
same,Average (n = 3),[1]; 84 hours,32.33
same,Average (n = 3),[1]; 96 hours,15
same,LOG10 (CFU/g),[1]; 0 hours,3.65 LOG10 (CFU/g)
same,LOG10 (CFU/g),[1]; 12 hours,3.59 LOG10 (CFU/g)
same,LOG10 (CFU/g),[1]; 24 hours,3.46 LOG10 (CFU/g)
same,LOG10 (CFU/g),[1]; 36 hours,3.35 LOG10 (CFU/g)
same,LOG10 (CFU/g),[1]; 48 hours,3.30 LOG10 (CFU/g)
same,LOG10 (CFU/g),[1]; 60 hours,3.23 LOG10 (CFU/g)
same,LOG10 (CFU/g),[1]; 72 hours,3.11 LOG10 (CFU/g)
same,LOG10 (CFU/g),[1]; 84 hours,2.85 LOG10 (CFU/g)
same,LOG10 (CFU/g),[1]; 96 hours,2.52 LOG10 (CFU/g)
same,Average (n = 3),[2]; [4],199.67
same,Average (n = 3),[2]; [5],199.67
same,Average (n = 3),"[2]; 1 day, first series (0-6 days)",145
same,Average (n = 3),[2]; [6],145
same,Average (n = 3),[2]; [7],110
same,Average (n = 3),[2]; [8],110
same,Average (n = 3),[2]; [9],90
same,Average (n = 3),[2]; [10],90
same,Average (n = 3),[2]; [11],60.67
same,Average (n = 3),[2]; [12],57
same,Average (n = 3),[2]; [13],38.33
same,LOG10 (CFU/g),[2]; [4],3.65 LOG10 (CFU/g)
same,Reduction %,[2]; [4],0.00%
same,LOG10 (CFU/g),[2]; [5],3.65 LOG10 (CFU/g)
same,Reduction %,[2]; [5],0.00%
same,LOG10 (CFU/g),"[2]; 1 day, first series (0-6 days)",3.51 LOG10 (CFU/g)
same,Reduction %,"[2]; 1 day, first series (0-6 days)",3.81%
same,LOG10 (CFU/g),[2]; [6],3.51 LOG10 (CFU/g)
same,Reduction %,[2]; [6],3.81%
same,LOG10 (CFU/g),[2]; [7],3.39 LOG10 (CFU/g)
same,Reduction %,[2]; [7],7.10%
same,LOG10 (CFU/g),[2]; [8],3.39 LOG10 (CFU/g)
same,Reduction %,[2]; [8],7.10%
same,LOG10 (CFU/g),[2]; [9],3.30 LOG10 (CFU/g)
same,Reduction %,[2]; [9],9.49%
same,LOG10 (CFU/g),[2]; [10],3.30 LOG10 (CFU/g)
same,Reduction %,[2]; [10],9.49%
same,LOG10 (CFU/g),[2]; [11],3.13 LOG10 (CFU/g)
same,Reduction %,[2]; [11],14.22%
same,LOG10 (CFU/g),[2]; [12],3.10 LOG10 (CFU/g)
same,Reduction %,[2]; [12],14.93%
same,LOG10 (CFU/g),[2]; [13],2.93 LOG10 (CFU/g)
same,Reduction %,[2]; [13],19.76%
same,Average (n = 3),"[3]; 5° C. - 12% DBM, 0 days",199.76
same,Average (n = 3),"[3]; 5° C. - 12% DBM, 1 day",165
same,Average (n = 3),"[3]; 5° C. - 12% DBM, 2 days",131.3
same,Average (n = 3),"[3]; 5° C. - 12% DBM, 3 days",90.67
same,Average (n = 3),"[3]; 5° C. - 12% DBM, 4 days",61
same,Average (n = 3),"[3]; 5° C. - 12% DBM, 5 days",57
same,Average (n = 3),"[3]; 5° C. - 12% DBM, 6 days",38
same,Average (n = 3),"[3]; 25° C. - 12% DBM, 0 days",199.67
same,Average (n = 3),"[3]; 25° C. - 12% DBM, 1 day",145.33
same,Average (n = 3),"[3]; 25° C. - 12% DBM, 2 days",110
same,Average (n = 3),"[3]; 25° C. - 12% DBM, 3 days",90
same,Average (n = 3),"[3]; 25° C. - 12% DBM, 4 days",60.67
same,Average (n = 3),"[3]; 25° C. - 12% DBM, 5 days",57
same,Average (n = 3),"[3]; 25° C. - 12% DBM, 6 days",38
same,Average (n = 3),"[3]; 32° C. - 12% DBM, 0 days",199.67
same,Average (n = 3),"[3]; 32° C. - 12% DBM, 1 day",175
same,Average (n = 3),"[3]; 32° C. - 12% DBM, 2 days",130
same,Average (n = 3),"[3]; 32° C. - 12% DBM, 3 days",100.33
same,Average (n = 3),"[3]; 32° C. - 12% DBM, 4 days",90.67
same,Average (n = 3),"[3]; 32° C. - 12% DBM, 5 days",77
same,Average (n = 3),"[3]; 32° C. - 12% DBM, 6 days",58
same,LOG10 (CFU/g),"[3]; 5° C. - 12% DBM, 0 days",3.65 LOG10 (CFU/g)
same,LOG10 (CFU/g),"[3]; 5° C. - 12% DBM, 1 day",3.56 LOG10 (CFU/g)
same,LOG10 (CFU/g),"[3]; 5° C. - 12% DBM, 2 days",3.47 LOG10 (CFU/g)
same,LOG10 (CFU/g),"[3]; 5° C. - 12% DBM, 3 days",3.30 LOG10 (CFU/g)
same,LOG10 (CFU/g),"[3]; 5° C. - 12% DBM, 4 days",3.13 LOG10 (CFU/g)
same,LOG10 (CFU/g),"[3]; 5° C. - 12% DBM, 5 days",3.10 LOG10 (CFU/g)
same,LOG10 (CFU/g),"[3]; 5° C. - 12% DBM, 6 days",2.93 LOG10 (CFU/g)
same,LOG10 (CFU/g),"[3]; 25° C. - 12% DBM, 0 days",3.65 LOG10 (CFU/g)
same,LOG10 (CFU/g),"[3]; 25° C. - 12% DBM, 1 day",3.51 LOG10 (CFU/g)
same,LOG10 (CFU/g),"[3]; 25° C. - 12% DBM, 2 days",3.39 LOG10 (CFU/g)
same,LOG10 (CFU/g),"[3]; 25° C. - 12% DBM, 3 days",3.30 LOG10 (CFU/g)
same,LOG10 (CFU/g),"[3]; 25° C. - 12% DBM, 4 days",3.13 LOG10 (CFU/g)
same,LOG10 (CFU/g),"[3]; 25° C. - 12% DBM, 5 days",3.10 LOG10 (CFU/g)
same,LOG10 (CFU/g),"[3]; 25° C. - 12% DBM, 6 days",2.93 LOG10 (CFU/g)
same,LOG10 (CFU/g),"[3]; 32° C. - 12% DBM, 0 days",3.65 LOG10 (CFU/g)
same,LOG10 (CFU/g),"[3]; 32° C. - 12% DBM, 1 day",3.59 LOG10 (CFU/g)
same,LOG10 (CFU/g),"[3]; 32° C. - 12% DBM, 2 days",3.46 LOG10 (CFU/g)
same,LOG10 (CFU/g),"[3]; 32° C. - 12% DBM, 3 days",3.35 LOG10 (CFU/g)
same,LOG10 (CFU/g),"[3]; 32° C. - 12% DBM, 4 days",3.30 LOG10 (CFU/g)
same,LOG10 (CFU/g),"[3]; 32° C. - 12% DBM, 5 days",3.23 LOG10 (CFU/g)
same,LOG10 (CFU/g),"[3]; 32° C. - 12% DBM, 6 days",3.11 LOG10 (CFU/g)
